Results published in US8729082B2, “Substituted imidazoquinoxalines” (Bayer Intellectual Property GmbH, priority 2009, dated 2014).
pIC50: −log10 of the molar value.

Each compound was assayed against T1, human kinase Mps-1 (Homo sapiens, UniProt P33981) (assay: Mps-1 kinase assay (HTRF)). Conditions: lowATP; mean; read-out: Mps1 lowATP mean IC50.
T1 construct: N-terminally GST-tagged human full length recombinant Mps-1 kinase; purchased Invitrogen, Karslruhe, Germany PV4071
T1 sequence (P33981 1-857): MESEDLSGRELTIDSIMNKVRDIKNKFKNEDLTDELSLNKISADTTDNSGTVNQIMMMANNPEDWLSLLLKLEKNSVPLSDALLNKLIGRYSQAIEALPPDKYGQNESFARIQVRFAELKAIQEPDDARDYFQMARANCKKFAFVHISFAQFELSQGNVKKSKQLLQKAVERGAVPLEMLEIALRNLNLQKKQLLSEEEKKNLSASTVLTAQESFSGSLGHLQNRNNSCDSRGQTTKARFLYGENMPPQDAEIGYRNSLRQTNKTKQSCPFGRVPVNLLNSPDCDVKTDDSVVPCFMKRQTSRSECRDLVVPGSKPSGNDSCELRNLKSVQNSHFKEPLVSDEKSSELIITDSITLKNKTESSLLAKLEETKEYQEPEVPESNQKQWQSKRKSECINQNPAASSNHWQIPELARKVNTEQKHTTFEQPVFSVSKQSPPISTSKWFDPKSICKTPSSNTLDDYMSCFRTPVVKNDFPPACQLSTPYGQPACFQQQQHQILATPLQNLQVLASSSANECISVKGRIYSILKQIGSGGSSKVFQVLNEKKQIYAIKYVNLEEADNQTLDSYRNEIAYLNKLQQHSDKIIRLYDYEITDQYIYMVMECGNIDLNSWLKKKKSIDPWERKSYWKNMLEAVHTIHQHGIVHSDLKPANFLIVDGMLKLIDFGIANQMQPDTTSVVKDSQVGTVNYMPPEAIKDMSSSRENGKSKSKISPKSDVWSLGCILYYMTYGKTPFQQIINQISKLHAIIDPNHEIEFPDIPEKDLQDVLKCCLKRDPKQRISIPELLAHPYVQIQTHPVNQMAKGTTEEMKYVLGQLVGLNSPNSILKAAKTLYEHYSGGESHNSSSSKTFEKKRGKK
Format: biochemical
How it was run: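 HTRF readout: EDTA-stopped reactions incubated 1 h with europium anti-phospho(Ser/Thr) antibody and streptavidin-XLent, emission ratio 665/620 nm after 350 nm excitation. Kinase step: compound pre-bound 15 min to ~1 nM GST-Mps-1, then 60 min at 22 °C with ATP and biotin-peptide substrate; inhibition scaled between no-inhibitor (0%) and no-enzyme (100%) controls.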
With Cn1ccc(CNc2nc3cc(F)c(F)cc3n3c(-c4ccc(C(=O)NC5CC5)cc4)cnc23)n1 [Example 2-109, N-cyclopropyl-4-(7,8-difluoro-4-{[(1-methyl-1H-pyrazol-3-yl)methyl]amino}imidazo[1,2-a]quinoxalin-1-yl)benzamide] the pIC50 was 6.59.
Compound Cn1nccc1CNc1nc2cc(F)c(F)cc2n2c(-c3ccc(C(=O)NC4CC4)cc3)cnc12 [Example 2-110, N-cyclopropyl-4-(7,8-difluoro-4-{[(1-methyl-1H-pyrazol-5-yl)methyl]amino}imidazo[1,2-a]quinoxalin-1-yl)benzamide] has a pIC50 of 7.54.
With Cn1cc(CNc2nc3cc(F)c(F)cc3n3c(-c4ccc(C(=O)NC5CC5)cc4)cnc23)cn1 [Example 2-111, N-cyclopropyl-4-(7,8-difluoro-4-{[(1-methyl-1H-pyrazol-4-yl)methyl]amino}imidazo[1,2-a]quinoxalin-1-yl)benzamide] the pIC50 was 7.10.
With NS(=O)(=O)CCNc1nc2cc(F)c(F)cc2n2c(-c3ccc(C(=O)NC4CC4)cc3)cnc12 [Example 2-112, N-cyclopropyl-4-{7,8-difluoro-4-[(2-sulfamoylethyl)amino]imidazo[1,2-a]quinoxalin-1-yl}benzamide] the pIC50 was 7.28.
Work on O=C(NC1CC1)c1ccc(-c2cnc3c(NCC(O)CO)nc4cc(F)c(F)cc4n23)cc1 (centres unmarked) [Example 2-113, N-cyclopropyl-4-{4-[(2,3-dihydroxypropyl)amino]-7,8-difluoroimidazo[1,2-a]quinoxalin-1-yl}benzamide] yielded a pIC50 of 6.71.
With CCCNc1nc2cc(F)c(F)cc2n2c(-c3ccc(NC(=O)NC)cc3)cnc12 [Example 2-114, 1-{4-[7,8-difluoro-4-(propylamino)imidazo[1,2-a]quinoxalin-1-yl]phenyl}-3-methylurea] the pIC50 was 4.80.
For CNC(=O)Nc1ccc(-c2cnc3c(NCCCN4CCCC4=O)nc4cc(F)c(F)cc4n23)cc1 [Example 2-115, 1-[4-(7,8-difluoro-4-{[3-(2-oxopyrrolidin-1-yl)propyl]amino}imidazo[1,2-a]quinoxalin-1-yl)phenyl]-3-methylurea], the pIC50 was 4.79.
CNC(=O)Nc1ccc(-c2cnc3c(NCCCO)nc4cc(F)c(F)cc4n23)cc1 [Example 2-116, 1-(4-{7,8-difluoro-4-[(3-hydroxypropyl)amino]imidazo[1,2-a]quinoxalin-1-yl}phenyl)-3-methylurea] showed a pIC50 of 5.27.
In the case of CCCCNc1nc2cc(F)c(F)cc2n2c(-c3ccc(NC(=O)NC)cc3)cnc12 [Example 2-117, 1-{4-[4-(butylamino)-7,8-difluoroimidazo[1,2-a]quinoxalin-1-yl]phenyl}-3-methylurea], the pIC50 was 4.71.
CNC(=O)Nc1ccc(-c2cnc3c(NCCNC(C)=O)nc4cc(F)c(F)cc4n23)cc1 [Example 2-118, N-{2-[(7,8-difluoro-1-{4-[(methylcarbamoyl)amino]phenyl}imidazo[1,2-a]quinoxalin-4-yl)amino]ethyl}acetamide] showed a pIC50 of 4.90.
CNC(=O)Nc1ccc(-c2cnc3c(NCCCn4ccnc4)nc4cc(F)c(F)cc4n23)cc1 [Example 2-119, 1-[4-(7,8-difluoro-4-{[3-(1H-imidazol-1-yl)propyl]amino}imidazo[1,2-a]quinoxalin-1-yl)phenyl]-3-methylurea] was tested, and the pIC50 was 5.15.
In the case of CNC(=O)Nc1ccc(-c2cnc3c(NCC4CC4)nc4cc(F)c(F)cc4n23)cc1 [Example 2-120, 1-(4-{4-[(cyclopropylmethyl)amino]-7,8-difluoroimidazo[1,2-a]quinoxalin-1-yl}phenyl)-3-methylurea], the pIC50 was 5.23.
In the case of CNC(=O)Nc1ccc(-c2cnc3c(NCc4ccccn4)nc4cc(F)c(F)cc4n23)cc1 [Example 2-121, 1-(4-{7,8-difluoro-4-[(pyridin-2-ylmethyl)amino]imidazo[1,2-a]quinoxalin-1-yl}phenyl)-3-methylurea], the pIC50 was 5.17.
CNC(=O)Nc1ccc(-c2cnc3c(NCc4cccnc4)nc4cc(F)c(F)cc4n23)cc1 [Example 2-122, 1-(4-{7,8-difluoro-4-[(pyridin-3-ylmethyl)amino]imidazo[1,2-a]quinoxalin-1-yl}phenyl)-3-methylurea] showed a pIC50 of 5.39.
CNC(=O)Nc1ccc(-c2cnc3c(NCc4ccncc4)nc4cc(F)c(F)cc4n23)cc1 [Example 2-123, 1-(4-{7,8-difluoro-4-[(pyridin-4-ylmethyl)amino]imidazo[1,2-a]quinoxalin-1-yl}phenyl)-3-methylurea] was tested, and the pIC50 was 5.45.
For CCCNc1nc2cc(F)c(F)cc2n2c(-c3ccc(C(=O)NC4CC4)c(Cl)c3)cnc12 [Example 2-124, 2-chloro-N-cyclopropyl-4-[7,8-difluoro-4-(propylamino)imidazo[1,2-a]quinoxalin-1-yl]benzamide], the pIC50 was 6.50.
O=C(NC1CC1)c1ccc(-c2cnc3c(NCCCN4CCCC4=O)nc4cc(F)c(F)cc4n23)cc1Cl [Example 2-125, 2-chloro-N-cyclopropyl-4-(7,8-difluoro-4-{[3-(2-oxopyrrolidin-1-yl)propyl]amino}imidazo[1,2-a]quinoxalin-1-yl)benzamide] was tested, and the pIC50 was 5.02.
Work on COCCNc1nc2cc(F)c(F)cc2n2c(-c3ccc(C(=O)NC4CC4)c(Cl)c3)cnc12 [Example 2-126, 2-chloro-N-cyclopropyl-4-{7,8-difluoro-4-[(2-methoxyethyl)amino]imidazo[1,2-a]quinoxalin-1-yl}benzamide] yielded a pIC50 of 5.31.
Compound O=C(NC1CC1)c1ccc(-c2cnc3c(NCc4ccccc4F)nc4cc(F)c(F)cc4n23)cc1Cl [Example 2-127, 2-chloro-N-cyclopropyl-4-{7,8-difluoro-4-[(2-fluorobenzyl)amino]imidazo[1,2-a]quinoxalin-1-yl}benzamide] has a pIC50 of 5.42.
O=C(NC1CC1)c1ccc(-c2cnc3c(NCc4ccc(F)cc4)nc4cc(F)c(F)cc4n23)cc1Cl [Example 2-128, 2-chloro-N-cyclopropyl-4-{7,8-difluoro-4-[(4-fluorobenzyl)amino]imidazo[1,2-a]quinoxalin-1-yl}benzamide] showed a pIC50 of 4.76.
Work on O=C(NC1CC1)c1ccc(-c2cnc3c(NCCCCO)nc4cc(F)c(F)cc4n23)cc1Cl [Example 2-129, 2-chloro-N-cyclopropyl-4-{7,8-difluoro-4-[(4-hydroxybutyl)amino]imidazo[1,2-a]quinoxalin-1-yl}benzamide] yielded a pIC50 of 5.64.
In the case of O=C(NC1CC1)c1ccc(-c2cnc3c(NCCCO)nc4cc(F)c(F)cc4n23)cc1Cl [Example 2-130, 2-chloro-N-cyclopropyl-4-{7,8-difluoro-4-[(3-hydroxypropyl)amino]imidazo[1,2-a]quinoxalin-1-yl}benzamide], the pIC50 was 5.51.
CCCCNc1nc2cc(F)c(F)cc2n2c(-c3ccc(C(=O)NC4CC4)c(Cl)c3)cnc12 [Example 2-131, 4-[4-(butylamino)-7,8-difluoroimidazo[1,2-a]quinoxalin-1-yl]-2-chloro-N-cyclopropylbenzamide] was tested, and the pIC50 was 5.43.
With CC(=O)NCCNc1nc2cc(F)c(F)cc2n2c(-c3ccc(C(=O)NC4CC4)c(Cl)c3)cnc12 [Example 2-132, 4-(4-{[2-(acetylamino)ethyl]amino}-7,8-difluoroimidazo[1,2-a]quinoxalin-1-yl)-2-chloro-N-cyclopropylbenzamide] the pIC50 was 5.11.
In the case of O=C(NC1CC1)c1ccc(-c2cnc3c(NCCCn4ccnc4)nc4cc(F)c(F)cc4n23)cc1Cl [Example 2-133, 2-chloro-N-cyclopropyl-4-(7,8-difluoro-4-{[3-(1H-imidazol-1-yl)propyl]amino}imidazo[1,2-a]quinoxalin-1-yl)benzamide], the pIC50 was 5.48.
Work on O=C(NC1CC1)c1ccc(-c2cnc3c(NCc4ccccn4)nc4cc(F)c(F)cc4n23)cc1Cl [Example 2-134, 2-chloro-N-cyclopropyl-4-{7,8-difluoro-4-[(pyridin-2-ylmethyl)amino]imidazo[1,2-a]quinoxalin-1-yl}benzamide] yielded a pIC50 of 5.17.
With O=C(NC1CC1)c1ccc(-c2cnc3c(NCc4cccnc4)nc4cc(F)c(F)cc4n23)cc1Cl [Example 2-135, 2-chloro-N-cyclopropyl-4-{7,8-difluoro-4-[(pyridin-3-ylmethyl)amino]imidazo[1,2-a]quinoxalin-1-yl}benzamide] the pIC50 was 5.80.
For O=C(NC1CC1)c1ccc(-c2cnc3c(NCc4ccncc4)nc4cc(F)c(F)cc4n23)cc1Cl [Example 2-136, 2-chloro-N-cyclopropyl-4-{7,8-difluoro-4-[(pyridin-4-ylmethyl)amino]imidazo[1,2-a]quinoxalin-1-yl}benzamide], the pIC50 was 5.77.
With CC(C)CNc1nc2cc(F)c(F)cc2n2c(-c3ccc(C(=O)NC4CC4)c(Cl)c3)cnc12 [Example 2-137, 2-chloro-N-cyclopropyl-4-{7,8-difluoro-4-[(2-methylpropyl)amino]imidazo[1,2-a]quinoxalin-1-yl}benzamide] the pIC50 was 6.41.
